Assay [1] deals with Reconstructed Human Epidermis (RHE). The assay is described as follows: Reconstructed Human Epidermis (RHE) treated topically with ceramide in base emulsion, LC-MS/MS proteomics. Type of assay: cell-based. The note with it: application on keratinocytes. How it is done: Material and methods: Reconstructed Human Epidermis (RHE) cell culture is used, as this system mimics the in vivo 3D structure of epidermal tissue as well as the conditions and processes that occur in normal epidermis. RHE are cultured using the medium provided by the manufacturer until analysis. RHE are maintained in survival for 24 hours, before RHE are topically treated with the respective ceramide in a base emulsion for 24 h. 3 RHE are treated with base emulsion alone and 3 more remained untreated as a control batch (Ctrl). RHE are incubated under classical cell culture conditions (37° C., 5% CO2).
Sample preparation and LC-MS/MS analysis: Protein is extracted using the Pierce Total Protein Extraction Kit (Thermo Fisher) according to manufacturer's recommendations. The protein is mixed with Laemmli buffer and heated to 37° C. for 30 min. Protein concentration is determined by the BCA method and standardized for all samples. The samples are separated by SDS-PAGE and digested with trypsin overnight. The peptides generated are acidified and separated. The mass spectra are queried using Proteome Discoverer (version 2.5). The resulting MS/MS data are queried against the Homo sapiens proteome UP000005640 (20371 reviewed entries). Results are filtered based on unique peptides >2, and global peptide scores. Analyses are performed using Proteome Discoverer 2.5 to check for overall sample quality.
Bioinformatics and statistical analysis: Proteomic analysis returned a mean total of 34961 high-quality peptides corresponding to a mean 2422 identifiable and quantifiable RHE proteins among conditions. A summary of proteins differentially expressed within conditions is provided in Annex 3. Proteins with a p-value 0.05 in at least one of the concentrations tested for a lipid are considered significant and used for pairwise comparisons. Relevant proteins are classified by their biological processes and associated pathways using the publicly available gene ontology (GO) database provided by the Gene Ontology Consortium and Reactome. Interactome analysis was performed using Cytoscape combined with STRING.

In another assay the test system is IL-1α. Briefly: IL-1α ELISA quantification in BEM culture medium of skin explants. The format is cell-based, human. The note with it: 0.05% GlcCNS18 in basic emulsion, topical. How it is done:
Human skin explants of an average diameter of 11 mm (+1 mm) were prepared on an abdoplasty coming from a person with a II phototype according to Fitzpatrick skin colour classification. The explants were kept in survival in BEM culture medium (BIO-EC's Explants Medium) at 37° C. in a humid, 5%—CO2 atmosphere.
The tested products E and P were applied topically at a rate of 2 μL per 1 cm^2 explant (2 mg/cm^2), and spread using a small spatula on day 0 (D0), D1, D2 and D5. […] The culture medium was half renewed (1 ml per well) on D1, D2 and completely renewed (2 mL per well) on D5.
On D0, the 3 explants from the batch TO were collected and cut into two parts. One part was fixed in buffered formalin solution, and the other part was frozen at −80° C. for histological analysis. On D6, 4 explants from the concerned batches were collected and treated in the same way than in D0. The culture medium BEM of all batches was collected on D6 (2 mL per explant) and stored at −20° C. for dosages.
IL-1α dosage was performed with human IL-1α ELISA kit (Cayman, ref 583301). According to provider's guidelines, the culture medium and the IL-1α standard were incubated with acetylcholinesterase (AChE) Fab′ conjugate binding IL-1α in wells which contain coated IL-1α antibody, overnight at 4° C. […] Absorbance at 412 nm was measured using the M200Pro Tecan microplate reader and Magellan7 software. […]

The test system of the next assay is Laminin 5. Briefly: Laminin-5 immunostaining along the dermal-epidermal junction of living human skin explants. The format is cell-based. The note with it: 0.1% CNS18 in basic emulsion, topical, 4 days of treatment. How it is done:
(§1) Human skin explants of an average diameter of 12 mm (±1 mm) were prepared on an abdoplasty coming from a person with a phototype II according to Fitzpatrick skin colour classification. The explants were kept in survival in BEM culture medium (BIO-EC's Explants Medium) at 37° C. in a humid, 5%—CO2 atmosphere.
(§2) The tested products E and P were applied topically at a rate of […] per 1 cm^2 explant (≈2 mg/cm^2), and spread using a small spatula on day 0 (D0), D2, D4 and D6. […] The culture medium was half renewed (l ml per well) on D2, D4 and D6.
(§3) On D0, the 3 explants from the batch TO were collected and cut into two parts. Half was fixed in buffered formalin solution, […] was frozen at −80° C. On D4 and D8, 3 explants from the concerned batches were collected and treated in the same way as in D0.
After fixation for 24 hours in buffered formalin, the samples were dehydrated and impregnated in paraffin using a Leica PEARL dehydration automat. The samples were embedded using a Leica EG 1160 embedding station. 5-μm-thick sections were made using a Leica RM 2125 Minot-type microtome, and the sections were mounted on Superfrost® histological glass slides. The frozen samples were cut into 7-μm-thick sections using a Leica CM 3050 cryostat. Sections were then mounted on Superfrost® plus silanized glass slides. […]
The immunostaining was assessed by microscopical observation.

The test system of a further assay is Collagen IV. Briefly: Collagen IV immunostaining along the dermal-epidermal junction of living human skin explants. Type of assay: cell-based. The following applies: 0.1% CNS18 in basic emulsion, topical, 8 days of treatment. The protocol:
as §1, §2, §3
After fixation for 24 hours in buffered formalin, the samples were dehydrated and impregnated in paraffin using a Leica PEARL dehydration automat. The samples were embedded using a Leica EG 1160 embedding station. […]
Collagen IV immunostaining was performed on frozen skin sections with a monoclonal anti-collagen IV antibody (Dako, ref M0785, clone CIV 22) diluted at 1:25 in PBS-BSA 0.3%-Tween 20 at 0.05% and incubated for 1 h at room temperature. […] The immunostaining was assessed by microscopical observation.

Where [2] appears, read: 0.01%, 0.03%, 0.15% ceramide in vehicle vs vehicle, 24 h.

Structures are written as SMILES.

As to `CCCCCCCCCCCCCCCCCC(=O)NC(CO)C(O)CCCCCCCCCCCCCCC` (centres unmarked) [Cer NG], in assay [1], the “regulation of ATP synthase subunit delta (mitochondrial)” value is listed as “upregulation”, the “regulation of ATP synthase subunit g (mitochondrial)” value (from here on “regulation of ATP synthase subunit g”) is recorded as “upregulation”, the “regulation of NAD-dependent protein deacetylase sirtuin-2 (sirtuin-2)” value (“regulation … (sirtuin-2)” for short) is given as “up-regulation” and the “regulation of cytochrome c oxidase subunit 6C” value is on record as “upregulation”. In assay [1], the “regulation of phosphomevalonate kinase” value is listed as “upregulation” and the “regulation of small proline-rich protein 2D” value is given as “up-regulation”. In addition, in assay [1] (setting [2]), the “regulation of ECM1 (Extracellular Matrix Protein 1)” value (shortened to “regulation of ECM1”) is on record as “up-regulation” and the “regulation of Integrin alpha-3” value is recorded as “up-regulation”.
In the case of `CCCCCCCCCCCCCCCCCC(=O)NC(CO)C(O)C(O)CCCCCCCCCCCCCC` (centres unmarked) [Cer NP], the “regulation of Keratin-17” value in assay [1] was “up-regulation”. In assay [1] (setting [2]), the “regulation of ECM1” value is reported as “up-regulation” and the “regulation of Syndecan-1” value is listed as “up-regulation”.
Turning to `CCCCCCCCCCCCCC=CC(O)C(COC1OC(CO)C(O)C(O)C1O)NC(=O)CCCCCCCCCCCCCCCCC` (centres unmarked) [GlcCer], in assay [1], the “regulation of ATP synthase subunit delta (mitochondrial)” value is recorded as “up-regulation”, the “regulation of ATP synthase subunit g” value is recorded as “up-regulation”, the “regulation of ATP-dependent zinc metalloprotease YME1L1” value is “up-regulation” and the “regulation of LC3A (microtubule-associated proteins 1A/1B light chain 3A)” value is recorded as “up-regulation”. Also, in assay [1], the “regulation of NAD-dependent malic enzyme (mitochondrial)” value is recorded as “up-regulation”, the “regulation of NADH dehydrogenase [ubiquinone]1 alpha subcomplex subunit 8” value was “up-regulation”, the “regulation of NADH dehydrogenase [ubiquinone] iron-sulfur protein 2 (mitochondrial)” value was “up-regulation” and the “regulation of cytochrome c oxidase subunit 6C” value is “up-regulation”. Moreover, in assay [1], the “regulation of interleukin-1-alpha (IL-1α)” value is on record as “down-regulation”, the “regulation of nuclear factor NF-kappa-B p105 subunit” value is recorded as “down-regulation”, the “regulation of phosphomevalonate kinase” value is “up-regulation” and the “regulation of protein S100-A2” value is recorded as “down-regulation”. In assay [1], the “regulation of protein S100-A9” value was “down-regulation”. Also, the IL-1α release result in the assay with IL-1α (day 6) is “increased”. Moreover, the IL-1α release result with IL-1α (day 6, listed as GlcCNS) was “significant increase”.
As to `CCCCCCCCCCCCCC=CC(O)C(CO)NC(=O)CCCCCCCCCCCCCCCCC` (centres unmarked) [Cer NS], in the assay with Laminin 5, the “increase in expression of laminin-5” value is given as 26%. Besides, the “increase in expression of collagen IV” value with Collagen IV is 41%. Besides, in assay [1], the “regulation of Kallikrein-5” value is recorded as “up-regulation”, the “regulation of LC3A (microtubule-associated proteins 1A/1B light chain 3A)” value is “up-regulation”, the “regulation … (sirtuin-2)” value is listed as “up-regulation” and the “regulation of cornifin-B” value is “up-regulation”. In addition, in assay [1], the “regulation of protein S100-A2” value is on record as “down-regulation” and the “regulation of protein S100-A9” value is “down-regulation”. For the same compound, in assay [1] (setting [2]), the “regulation of ECM1” value was “up-regulation”, the “regulation of Laminin-5” value was “up-regulation”, the “regulation of Plakophilin-2” value is “up-regulation” and the “regulation of Syndecan-1” value was “up-regulation”.
Regarding `CCCCCCCCCCCCCC=CC(O)C(COC1OC(CO)C(OC2OC(CO)C(O)C(O)C2O)C(O)C1O)NC(=O)CCCCCCCCCCCCCCCCC` (centres unmarked) [LacCer], in assay [1], the “regulation of ATP synthase subunit delta (mitochondrial)” value was “upregulation”, the “regulation of ATP synthase subunit g” value is on record as “upregulation”, the “regulation of ATP-dependent zinc metalloprotease YME1L1” value was “upregulation” and the “regulation of Glutathione S-transferase Mu 2” value is “up-regulation”. Also, in assay [1], the “regulation of LC3B (microtubule-associated proteins 1A/1B light chain 3B)” value is “up-regulation”, the “regulation of NAD-dependent malic enzyme (mitochondrial)” value is “upregulation”, the “regulation … (sirtuin-2)” value is reported as “up-regulation” and the regulation of cystathione-gamma-lyase result is reported as “up-regulation”. Moreover, in assay [1], the “regulation of cytochrome b-cl complex subunit 9” value is “upregulation”, the “regulation of cytochrome c oxidase subunit 2” value is given as “upregulation”, the “regulation of cytochrome c oxidase subunit 6C” value is listed as “upregulation” and the “regulation of cytochrome c oxidase subunit NDUFA4” value was “upregulation”. Besides, the “regulation of phosphomevalonate kinase” value in assay [1] is recorded as “upregulation”. Besides, in assay [1] (setting [2]), the “regulation of ECM1” value is recorded as “up-regulation” and the “regulation of Syndecan-1” value is “up-regulation”.

Source of the values: patent US20260041622A1, “Reduction of Signs of Skin Aging” (CarboCode S.A., priority 2022, published 2026).
